Assay results published in US3954793A, “1-(2-Propynyl)-1 H-indazole compounds” (priority 1973, dated 1976).
Where “and” joins values, the source holds several entries; their conditions need not be identical. Equal entries are not always repeated.

Legend:
[1] = tested on: polyvalent resistant (CH strain) houseflies; test: whole plant or invertebrate; assay type: in vivo
Procedure: The effect of O-(2-propynyl) oximes with Dimetilan and with GS 13798 was obtained from tests on polyvalent resistant (CH strain) houseflies that had been chilled and to the dorsal region of which was applied an acetone solution of synergist and insecticide at a ratio of two to one. Duplicate tests were performed using 10 four to five-day old female houseflies per test. After dosage, the flies were put in a plastic petri dish with cotton soaked in a sugar-water solution. These doses of insecticide used without synergist caused 10-40% mortality.
In Table IX, and in the tables following it, the doses of topically applied insecticides and of synergists unless otherwise noted are expressed as micrograms per fly (μg/fly).
The effect of compounds II-C, II-D and II-E with Dimetilan and GS 13798 was determined, following the procedure of Example 5, from tests on polyvalent resistant (CH strain) houseflies. These doses of insecticide used without synergist caused 10-40% mortality.
The synergistic effect with GS 13005 of compounds I-A, I-B, I-D, I-E, I-F, I-G and I-I was determined from topical application tests to IN/WHO strain, Rutgers A strain and polyvalent CH strain houseflies using the procedures of Example 5. The percent kills of the IN/WHO strain flies after 24 hours are shown in Table XXVIII; of the Rutgers A strain, in Table XXIX; and of the polyvalent CH strain, in Table XXX. The doses of insecticide alone to the CH strain files caused 10-40% mortality.
The synergistic effect with Diazinon and GS 13005 of various of the benzyl 2-propynyl ethers identified in Tables II and IIa was determined by topical application tests on IN/WHO strain, and Rutgers A strain and polyvalent, resistant, CH strain houseflies using the procedures of Example 5. The percent kills after 24 hours of IN/WHO strain flies are shown in Table XXXI; of Rutgers A strain flies, in Table XXXII; and of CH strain flies, in Table XXXIII. The doses of insecticide alone to the CH strain flies caused 10-40% mortality.
The synergistic effect with pyrethrum of various synergist compounds was determined by topical application tests on polyvalent, resistant CH strain houseflies following the procedure of Example 5. Application of the insecticide alone caused 10-40% mortality.

[2] = tested on: IN/WHO strain house flies; test: topical application, percent kill after 24 hours, susceptible IN/WHO strain; assay type: in vivo, female)
Outline: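 Insecticide plus synergist in acetone, 1.0 μl applied to the thorax of CO2-anesthetized 3-to-5-day-old female IN/WHO house flies, doses in μg/fly. Flies held 10 per dish, 3-5 dishes per treatment, with skim milk. Percent mortality scored after 24 h.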

[3] = tested on: German male cockroaches (Blatella Germanicus); test: topical application to thorax, 24 hour mortality of German male cockroaches; assay type: in vivo; conditions: cockroaches
Procedure: The synergistic effect with mobam of synergist compounds I-B, II-H, II-K and IV-C is further illustrated by the 24 hour mortality data of German male cockroaches (Blatella Germanicus) shown in Table XXXX. The synergists and insecticide were diluted in acetone and applied in small droplets to the thorax of the insect. These doses of synergist alone gave zero percent insect mortality.
The synergistic effect with GS 13005 of compounds I-B, II-H, II-K, II-P, II-Q, II-R and IV-C is illustrated by the 24 hour mortality of German male cockroaches shown in Table XXXXI. These doses of synergist alone caused zero percent insect mortality.

[4] = tested on: Swiss albino, white male mice; test: acute toxicity and synergism of acute toxicity in mice; assay type: in vivo; conditions: GS 13005 (71 mg/kg) in 0.1 ml corn oil
Outline: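 Male Swiss albino mice (23 to 27 g, five to six weeks), eight per dose, dosed intraperitoneally in corn oil: dimetilan alone at 4 to 32 mg per kg, synergists alone at 1000 mg/kg with deaths counted at 72 hours. For synergism, synergist given 1 hour before insecticide, lethality observed for at least 6 hours.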

[5] = tested on: Wilson strain house flies; assay type: in vivo, Wilson strain (susceptible)
Procedure: The required solutions of the insecticide and of the synergist compound were prepared in acetone at a concentration of 1 milligram per milliliter. One-pint wide mouth glass jars were coated with the appropriate insecticide-synergist combination by rolling the jars containing aliquots of the appropriate solutions diluted to three milliliters with acetone to deposit, by evaporation, a film of the test materials. The flies were transferred under carbon dioxide anesthesia and held in the jar at room temperature. Perforated aluminum foil was used to cover the jars and to hold cotton saturated with 10% sugar solution. Counts were made at intervals, but the recorded mortality was based on 24-hour kill, rather than knockdown. All prostrate non-moving flies were considered dead. A determination was then made of the contact synergistic ratio [SR], which is the ratio of the LC50 of insecticide alone to the LC50 of the insecticide when applied together with the synergist. The LC50 of the insecticide was estimated from a log-probit plot of percent kill versus dosage. […] The LC50 of the combination of insecticide and synergist was determined at a synergist to insecticide parts by weight ratio of five to one.

houseflies = test: topical application with Diazinon, Table XXVII (strain not given); assay type: in vivo
[6] = tested on: Rutgers A strain house flies; test: topical application, percent kill after 24 hours, resistant Rutgers A strain; assay type: in vivo, female)
Outline: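 Synergist plus mobam, Diazinon or GS 13005 dissolved in acetone, applied as 1.0 μl to the thorax of CO2-anaesthetised 3-to-5 day old female Rutgers A (resistant) house flies; doses in μg/fly. Flies held 10 per dish, 3-5 dishes per treatment, with skim milk; mortality scored at 24 h.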

## COc1nn(CSP(=S)(OC)OC)c(=O)s1 [GS 13005, S-((2-methoxy-5-oxo-Δ^2-1,3,4-thiadiazolin-4-yl)methyl) O,O-dimethyl phosphorodithioate, reference compound]
[1]; house fly, in vivo, topical or ocular, 24 h
  mortality, insecticide used without synergist: 10-40%
[2]; GS 13005 0.05, synergist 0 μg/fly
  percent kill after 24 hours, GS 13005 alone: 0%
[2]; GS 13005 0.10, synergist 0 μg/fly, 1440 min
  percent kill after 24 hours, GS 13005 alone: 19% and 16% and 12%
[3]; GS 13005 dose 0.08, synergist 0, 1440 min
  24 hour mortality, GS 13005 alone: 15% and 23% and 10%
[4]
  number of mice dead, control (GS 13005 alone): 5

## C#CCON=Cc1ccc(OC)c(OC)c1 [I-A]
[5]; LC50 pyrolan alone / LC50 with synergist, synergist to insecticide 5:1 by weight
  Contact Synergistic Ratio, Pyrolan: 30
[5]; in vivo
  Contact Synergistic Ratio, Carbaryl: 200
[1]; Dimetilan 2 + synergist 4 μg/fly, CH strain
  percent kill after 24 hours, with Dimetilan: 100%
[1]; GS 13005 1 + synergist 2 μg/fly, CH strain
  percent kill after 24 hours, with GS 13005: 45%
[1]; Musca domestica, topical, 24 h, insecticide 0, synergist 10 μg/fly, CH strain, read-out: percent kill after 24 hours, synergist alone
  mortality at 10 µg/fly: 0%
[1]; Pyrethrum 2 + synergist 4 μg/fly, CH strain
  percent kill after 24 hours, with pyrethrum: 15%
[1]; insecticide 0, synergist 10 μg/fly, CH strain
  percent kill after 24 hours, synergist alone: 0%
houseflies; Diazinon 5 + synergist 10 μg/fly
  percent kill after 24 hours, with Diazinon (Table XXVII): 45%
houseflies; Musca domestica, topical, 24 h, Diazinon 0, synergist 10 μg/fly, read-out: percent kill after 24 hours, synergist alone (Table XXVII)
  mortality at 10 µg/fly: 0%

## CNC(=O)Oc1cccc2sccc12 [Mobam, 4-benzo(b) thienyl-N-methylcarbamate, reference compound]
[2]; Mobam 0.13 μg/fly alone
  percent mortality 24 hours, Mobam alone: 0%
[2]; Mobam 0.25 μg/fly alone, 1440 min
  percent mortality 24 hours, Mobam alone: 27%
[2]; Mobam 0.50 μg/fly alone, 1440 min
  percent mortality 24 hours, Mobam alone: 83%
[2]; Mobam 1.0 μg/fly alone, 1440 min
  percent mortality 24 hours, Mobam alone: 93%
[2]; Mobam 0.05, synergist 0 μg/fly
  percent kill after 24 hours, Mobam alone: 0%
[2]; Mobam 0.10, synergist 0 μg/fly
  percent kill after 24 hours, Mobam alone: zero
[2]; Mobam 0.10, synergist 0 μg/fly, 1440 min
  percent kill after 24 hours, Mobam alone: 0%
[2]; Mobam 0.20, synergist 0 μg/fly, 1440 min
  percent kill after 24 hours, Mobam alone: 6% and 2% and 9%
[6]; Mobam 0.15, synergist 0 μg/fly
  percent kill after 24 hours, Mobam alone: 0%
[6]; Mobam 0.30, synergist 0 μg/fly
  percent kill after 24 hours, Mobam alone: 0%
[6]; Mobam 0.40, synergist 0 μg/fly
  percent kill after 24 hours, Mobam alone: 7%
[6]; Mobam 0.60, synergist 0 μg/fly
  percent kill after 24 hours, Mobam alone: 4%
[3]; Mobam dose 0.12, synergist 0
  24 hour mortality, Mobam alone: 10%
[3]; Mobam dose 0.16, synergist 0
  24 hour mortality, Mobam alone: 30%
